Reference: patent US8530404B2, “Compounds and methods for treatment of cancer” (FibroGen, Inc., priority 2005, dated 2013)
Where two headings read alike, the source gives them in different places.

What was measured:
BNIP3L gene expression [1] = test: BNIP3L gene expression in Hep3B cells (Affymetrix microarray); format: cell-based, human; conditions: 25 μM, vs DMSO control
Method: (§1) To identify compounds useful in the methods of the present invention, the following studies were performed. The effect of compounds of the present invention on expression of various genes associated with anti-tumor activity (e.g., genes having anti-proliferative activity, genes having pro-apoptotic activity, genes having anti-tumor activity, etc.). In these experiments, the effect of compounds on BNIP3, BNIP3L, NDRG1, CDKN1C, and REDD1/RTP801 gene expression in various types of cultured tumor cells line was examined, including Hep3B cells (human hepatocellular carcinoma), Kelly neuroblastoma cells, and MCF7 cells (human breast cancer)
(§2) The effects of various compounds of the present invention on the expression of genes associated with tumor growth and progression were examined in Hep3B cells as follows. Hep3B cells (ATCC) were cultured in DMEM containing 8% fetal bovine serum (FBS) and antibiotics. For each experiment, Hep3 cells were added to 6-well tissue culture dishes (approximately 500,000 cells per well). After 8 hours, the media was replaced with DMEM containing 0.5% FBS. Sixteen hours later, various compounds of the present invention were added to the cultured cells to a final concentration of 25 μM. The cells were then harvested and added to RNA extraction buffer (RNeasy, Qiagen). RNA was isolated from cell lysates using RNeasy Mini spin columns (Qiagen) according to the manufacturer's instructions. Changes in expression of various gene transcript levels associated with tumor growth and progression were determined by Affymetrix microarray. Labeled probes were prepared and hybridized to U133A Affyrnetrix microarrays.
(§3) Changes in gene expression levels in vitro following compound addition are presented as fold change relative to gene expression levels observed in control cells treated with DMSO only. Data represents the average of two independent studies.

[2] = tested on: REDD1/RTP801 gene expression; test: REDD1/RTP801 gene expression in Hep3B cells (Affymetrix microarray); format: cell-based, human; conditions: 25 μM, vs DMSO control
Method: as §1, §2, §3

BNIP3L gene expression [3] = test: In vivo BNIP3L gene expression in Swiss Webster mice (quantitative PCR); conditions: Mus musculus, iv, 4 h, single 60 mg/kg i.v. dose, four hours after administration, normalized to 18S, read-out: fold change in BNIP3L mRNA level
Method: (§4) The effects of various compounds of the present invention on the expression of genes associated with tumor growth and progression (e.g., expression of genes associated with anti-proliferative effects) were examined in vivo as follows. In these studies, male Swiss Webster mice (25 g) were administered a single intravenous (i.v.) dose of various compounds (60 mg/kg) of the present invention via the tail vein. Four hours after administration of compound, the kidneys and liver were removed and preserved in RNAlater (Ambion). RNA isolation and cDNA synthesis was carried out as follows. Murine kidney tissue was added to TRIzol (Invitrogen) and homogenized using a 5-mm stainless steel bead for 4 minutes at 25 Hz in a Mixer Mill 300 (Qiagen). Homogenates were extracted with chloroform according to the manufacturer's instructions and aqueous supernatants were isolated. The aqueous supernatants were combined with equal volumes of 70% ethanol and then loaded onto RNeasy Mini spin columns (Qiagen). RNA was isolated according to the manufacturer's instructions.
(§5) Synthesis of cDNA from the isolated total RNA was carried out using Omniscript reverse transcriptase (Qiagen) and random primers according to the manufacturer's instructions. Measurement of gene expression levels in compound-treated animals and in vehicle-treated control animals was performed by quantitative PCR using TaqMan Universal PCR Master Mix (Applied Biosystems) and TaqMan Assay-on-Demand assays (Applied Biosystems) in a Prism 7000 system instrument (Applied Biosystems), according to manufacturer's instructions. The assays used were as follows: 18S ribosomal RNA, Hs99999901_s1; BNIP3, Mm00833810_g1; BNIP3L, Mm00786306_s1; NDRG1, Mm00440447_m1. Each PCR amplification reaction included a standard curve and a water blank. Data for gene expression levels for BNIP3, BNIP3L, and NDRG1 were normalized to that of 18S ribosomal RNA within each sample. Data is presented as fold change in specific mRNA levels relative to that of non-treated control animals.

BNIP3 gene expression [4] = test: BNIP3 gene expression in Hep3B cells (Affymetrix microarray); format: cell-based, human; conditions: 25 μM, vs DMSO control
Method: as §1, §2, §3

NDRG1 gene expression [5] = test: NDRG1 gene expression in Hep3B cells (Affymetrix microarray); format: cell-based, human; conditions: 25 μM, vs DMSO control
Method: as §1, §2, §3

BNIP3 gene expression [6] = test: In vivo BNIP3 gene expression in Swiss Webster mice (quantitative PCR); conditions: Mus musculus, iv, 4 h, single 60 mg/kg i.v. dose, four hours after administration, normalized to 18S, read-out: fold change in BNIP3 mRNA level
Method: as §4, §5

CDKN1C gene expression [7] = test: CDKN1C gene expression in MCF7 cells; format: cell-based; conditions: Homo sapiens; MCF7 cells; 20 μM; 20-24 hours; vs 0.5% DMSO control; read-out: fold-increase in CDKN1C mRNA expression
Method: as §1
(§6) The effects of various compounds of the present invention on the expression of genes associated with tumor growth and progression were examined in MCF7 breast cancer cells as follows. In some experiments, MCF7 (ATCC) cells were plated in 96-well tissue culture dishes (approximately 20,000 cells per well) and cultured in DMEM media supplemented with 10% serum. The following day, the cells were washed and the media was replaced with DMEM containing 0.5% FBS. Various compounds of the present invention were added to the cultured cells to a final concentration of 20 μM, and the cells cultured for an additional 20-24 hours. DMSO (0.5%) was added to control cell cultures. RNA was isolated as described above. Changes in gene expression levels are presented as fold change compared to that of control (0.5% DMSO-treated) cultures.

CDKN1C gene expression [8] = test: CDKN1C gene expression in Kelly neuroblastoma cells; format: cell-based; conditions: Kelly cells; 20 μM; 20-24 hours; normalized to 18S RNA; vs DMSO control; read-out: fold-increase in CDKN1C mRNA expression
Method: as §1
(§7) The effects of various compounds of the present invention on the expression of genes associated with tumor growth and progression were examined in Kelly neuroblastoma cells as follows. Kelly neuroblastoma cells were grown in RPMI media. For each experiment, Kelly neuroblastoma cells were added to 96-well tissue culture plates (approximately 40,000 cells per well) such that the plated cells reached confluence the following day. On the following day, the cells were washed and the media replaced with RPMI containing 0.5% FBS. Various compounds of the present invention were added to the cultured cells to a final concentration of 20 μM, and the cells cultured for an additional 20-24 hours. DMSO (0.5%) was added to control cell cultures.
(§8) RNA was isolated from the Kelly neuroblastoma cells using a commercial kit and used for the preparation of cDNA. BNIP3, CDKN1C, and 18S RNA levels were measured using commercial kits (18S, Applied Biosystems cat#4319413E); BNIP3, Applied Biosystems cat#HS00969293 MH). RNA levels for BNIP3 and CDKN1C were normalized to that of 18S RNA and is presented as fold-change compared to that observed in DMSO control cultures. Kelly cell NDRG1 and BNIP3L mRNA levels were measured by Affymetrix microarray in a separate study. Cells were harvested after 6 hours incubation with 20 μM test compound or DMSO (0.5%) as control. RNA was isolated and labeled probes were prepared and hybridized to U133 Plus 2.0 Affymetrix microarrays. Changes in gene expression levels are presented as fold change compared to that of control (0.5% DMSO-treated) cultures.

BNIP3 gene expression [9] = test: BNIP3 gene expression in MCF7 cells; format: cell-based; conditions: Homo sapiens; MCF7 cells; 20 μM; 20-24 hours; vs 0.5% DMSO control; read-out: fold-increase in BNIP3 mRNA expression
Method: as §1, §6
In other experiments, MCF7 cells were plated in 96-well tissue culture dishes as described above. After 24 hours, the cells were washed and the media was replaced with DMEM containing 0.5% FBS. Various compounds of the present invention were added to the cultured cells to a final concentration of 20 μM. DMSO (0.5%) was added to control cell cultures. After 24 hours, changes in gene expression of BNIP3 and 18S RNA were determined directly using one-step quantitative multiplex RT-PCR reactions according to the manufacturer's instructions (QuantiTect Multiplex RT-PCR Kit, Qiagen, catalog no. 204643). Changes in gene expression levels are presented as fold change compared to that of control (0.5% DMSO-treated) cultures.

BNIP3 gene expression [10] = test: BNIP3 gene expression in Kelly neuroblastoma cells; format: cell-based; conditions: Kelly cells; 20 μM; 20-24 hours; normalized to 18S RNA; vs DMSO control; read-out: fold-increase in BNIP3 mRNA expression
Method: as §1, §7, §8

NDRG1 gene expression [11] = test: In vivo NDRG1 gene expression in Swiss Webster mice (quantitative PCR); conditions: Mus musculus, iv, 4 h; kidney; single 60 mg/kg i.v. dose; four hours after administration; normalized to 18S; read-out: fold change in NDRG1 mRNA level
Method: as §4, §5

Compound	fold-increase in BNIP3L mRNA expression (BNIP3L gene expression [1]) [fold]	fold-increase in REDD1/RTP801 mRNA expression [2] [fold]	fold induction at 60 mg/kg (BNIP3L gene expression [3]; liver)	fold-increase in BNIP3 mRNA expression (BNIP3 gene expression [4]) [fold]	fold-increase in NDRG1 mRNA expression (NDRG1 gene expression [5]) [fold]	fold induction at 60 mg/kg (BNIP3 gene expression [6]; liver)	fold induction at 20 µM (CDKN1C gene expression [7])	fold induction at 20 µM (CDKN1C gene expression [8])	fold induction at 20 µM (BNIP3 gene expression [9])	fold induction at 20 µM (BNIP3 gene expression [10])	fold induction at 60 mg/kg (BNIP3L gene expression [3]; kidney)	fold induction at 60 mg/kg (NDRG1 gene expression [11])	fold induction at 60 mg/kg (BNIP3 gene expression [6]; kidney)
O=C(O)c1c[nH]c2c(ccc3cccnc32)c1=O [Compound F, 4-Oxo-1,4-dihydro-[1,10]phenanthroline-3-carboxylic acid]	3.2	6.3	1.3	3.5	5.4	1.1							
COc1ccc(CCN(CCC(=O)NO)S(=O)(=O)c2ccc(NC(=O)N(Cc3ccccc3)Cc3ccccc3)cc2)cc1 [Compound G, 3-{[4-(3,3-Dibenzyl-ureido)-benzenesulfonyl]-[2-(4-methoxy-phenyl)-ethyl]-amino}-N-hydroxy-propionamide]	4.3	14.1		4.2	6.8								
O=C(O)CNC(=O)c1nc2cc(Cl)ccc2cc1O [Compound H, [(7-Chloro-3-hydroxy-quinoline-2-carbonyl)-amino]-acetic acid]	1.5	2.4		2.0	2.4		0.7	11.6	3.2	5.9			
COc1ccc2c(O)c(C(=O)NCC(=O)O)nc(Cl)c2c1 [Compound I, [(1-Chloro-4-hydroxy-7-methoxy-isoquinoline-3-carbonyl)-amino]-acetic acid]	1.7	3.8		2.1	3.3								
O=C(O)CNC(=O)c1ncc2cc(Cl)c(Cl)cc2c1O [Compound J, [(6,7-Dichloro-4-hydroxy-isoquinoline-3-carbonyl)-amino]-acetic acid]							0.8	6.9	3.3	8.9	1.3	1.7	2
O=C(O)CNC(=O)c1ncc2cc(Oc3ccccc3)ccc2c1O [Compound K, [(4-Hydroxy-7-phenoxy-isoquinoline-3-carbonyl)-amino]-acetic acid]	2.2	4.8		3.0	3.3				7.7				
C[C@H](NC(=O)c1ncc2cc(Sc3ccccc3)ccc2c1O)C(=O)O [Compound L, (S)-2-[(4-Hydroxy-7-phenylsulfanyl-isoquinoline-3-carbonyl)-amino]-propionic acid]							0.2	120	4.8	32.8	3.4	1	2.8
O=C(O)CNC(=O)c1nc(Oc2ccccc2)c2cc(Oc3ccccc3)ccc2c1O [Compound M, [(4-Hydroxy-1,7-diphenoxy-isoquinoline-3-carbonyl)-amino]-acetic acid]							2.1	3.4	0.4	27.6			
O=C(O)CNC(=O)c1ncc2cc(Sc3ccccc3)ccc2c1O [Compound N, [(4-hydroxy-7-phenylsulfanyl-isoquinoline-3-carbonyl)-amino]-acetic acid]	2.8	5.7		3.6	3.7		0.4	183	4.9	27.1	3.4	1.2	3.1
